One assay deals with HLA-B*58:01 (Homo sapiens, UniProt P01889, A329T/C349S/D201E/D98Y/E176V/E187L/E204Q/E69T/G107R/I218V/I90N/K202T/L105A/L119I/N104I/N87E/Q89R/Q94S/R106L/R155S/R180L/R86G/S101N/S121R/S35A/S48A/T118I/V127L/V306I/V36M/Y140S/Y91M). The settings on record: IEDB; threshold minimum affinity of 500 nM or minimum half-life of 1 h; ref [40], [41], [43]; cited from earlier work.
A further assay relates to Acar3. It is filed as binding, great reed warbler Acrocephalus arundinaceus.
For a further assay, the target named is HLA-A*32:07 (Homo sapiens, UniProt P04439, A270S/D101S/D185E/E176V/E277Q/F133L/F33S/G103R/G107R/G231S/H175R/I121M/I218V/I322F/K168Q/L105A/L300P/L318F/M331R/P208A/P217A/Q94H/R106L/R138Q/S129P/T104I/T323A/T345S/V100E/V321M/V358M). Further details: method as in ref [40], [41], [43] = [40]; 40 Rasmussen M Harndahl M Kristensen A Nielsen I Jorgensen K Stryhn A . Large Scale analysis of peptide - HLA-I stability . ( 2014 ). || [41]; 41 Harndahl M Lamberth K Justesen S Røder G Madsen M Nielsen M . Large Scale analysis of peptide-HLA class I interactions . ( 2007 ). || [43]; 43 Harndahl M Lamberth K Røder G Justesen S Madsen M Nielsen M . Large Scale analysis of peptide-HLA class I interactions . ( 2010 ). The settings on record: IEDB; threshold minimum affinity of 500 nM or minimum half-life of 1 h; ref [40], [41], [43]; cited from earlier work.

The next assay deals with HLA-B*35:01 (Homo sapiens, UniProt P01889, A329T/A93T/A95T/C349S/D201E/D98Y/E176V/E187L/E204Q/E69T/I218V/K202T/L119I/Q94N/R155S/R180L/S121R/S35A/S48A/T118I/V127L/V306I/V36M/Y140S/Y91F). On the set-up: method as in ref [40]-[43] = [40]; 40 Rasmussen M Harndahl M Kristensen A Nielsen I Jorgensen K Stryhn A . Large Scale analysis of peptide - HLA-I stability . ( 2014 ). || [41]; 41 Harndahl M Lamberth K Justesen S Røder G Madsen M Nielsen M . Large Scale analysis of peptide-HLA class I interactions . ( 2007 ). || [42]; 42 Harndahl M Lamberth K Justesen S Røder G Madsen M Sylvester-Hvid C . Large Scale analysis of peptide-HLA class I interactions . ( 2006 ). || [43]; 43 Harndahl M Lamberth K Røder G Justesen S Madsen M Nielsen M . Large Scale analysis of peptide-HLA class I interactions . ( 2010 ). The note with it: IEDB; threshold minimum affinity of 500 nM or minimum half-life of 1 h; ref [40]-[43]; cited from earlier work.

For the next assay, the target named is HLA-A*32:15 (Homo sapiens, UniProt P04439, A270S/D101S/D185E/E176V/E277Q/E87N/F133L/G103R/G107R/G231S/H175R/I121M/I218V/I322F/K168Q/L105A/L300P/L318F/M331R/P208A/P217A/Q86R/Q94H/R106L/R138Q/S129P/T104I/T323A/T345S/V100E/V321M/V358M). Further details: method as in ref [40], [41], [43] = [40]; 40 Rasmussen M Harndahl M Kristensen A Nielsen I Jorgensen K Stryhn A . Large Scale analysis of peptide - HLA-I stability . ( 2014 ). || [41]; 41 Harndahl M Lamberth K Justesen S Røder G Madsen M Nielsen M . Large Scale analysis of peptide-HLA class I interactions . ( 2007 ). || [43]; 43 Harndahl M Lamberth K Røder G Justesen S Madsen M Nielsen M . Large Scale analysis of peptide-HLA class I interactions . ( 2010 ). The settings on record: IEDB; threshold minimum affinity of 500 nM or minimum half-life of 1 h; ref [40], [41], [43]; cited from earlier work.

The target of a further assay is HLA-A*68:23 (Homo sapiens, UniProt P04439, A269V/D185E/E176V/E277Q/E87N/F33Y/G231S/I121R/I166T/I218V/L180W/L300P/L318F/N151K/P208A/P217A/Q86R/R169H/T345S). On the set-up: method as in ref [40], [41], [43] = [40]; 40 Rasmussen M Harndahl M Kristensen A Nielsen I Jorgensen K Stryhn A . Large Scale analysis of peptide - HLA-I stability . ( 2014 ). || [41]; 41 Harndahl M Lamberth K Justesen S Røder G Madsen M Nielsen M . Large Scale analysis of peptide-HLA class I interactions . ( 2007 ). || [43]; 43 Harndahl M Lamberth K Røder G Justesen S Madsen M Nielsen M . Large Scale analysis of peptide-HLA class I interactions . ( 2010 ). The note with it: IEDB; threshold minimum affinity of 500 nM or minimum half-life of 1 h; ref [40], [41], [43]; cited from earlier work.

A further assay addresses HLA-A*24:02 (Homo sapiens, UniProt P04439, D101N/D140Y/D185E/E176V/E190D/F33S/G103R/G107R/I119L/I121M/I306V/K335N/L105A/L180Q/L300P/N151K/N90K/Q86E/Q94H/R106L/R138H/R89G/T104I/T345S/V100E/W191G/Y123F). The settings on record: below the IEDB thresholds; no reference given; cited from earlier work.

For the sequence MTMITPPTF [P3], the “binding to HLA-B*58:01” value on HLA-B*58:01 was “binding partners”. In the assay on Acar3 (Table S1, top 94 PSCPL-scoring peptides, SPA, 10µM peptide, 125I β2m, folding over night at 18°C, dissociation measured up to 24 hours at 37°C), the “Stability T½ of Acar3 in complex with the peptide” value is reported as 10.3 h. Moreover, the “Stability T½ (h), peptide - Acar3” value with Acar3 (Table S5, half-life estimated from dissociation in scintillation proximity assay, Acar3) is reported as 10.3 h. At HLA-A*32:07, the “binding to HLA-A*32:07” value is on record as “binding partners”. The “binding to HLA-B*35:01” value at HLA-B*35:01 was “binding partners”. Besides, the “binding to HLA-A*32:15” value on HLA-A*32:15 is recorded as “binding partners”. Besides, the “binding to HLA-A*68:23” value at HLA-A*68:23 was “binding partners”. The “binding to HLA-A*24:02” value at HLA-A*24:02 was “weak binding”.

The values above are taken from paper PMC10360169 (Frontiers in Immunology, 2023).
